Tested on: miR-34b, miR-132, miR-137, miR-193a, and miR-203 genes in oral squamous-cell carcinoma cell lines
Assay: Real-time RT-PCR of candidate miRNA gene expression after treatment with demethylating reagent
Type: cell-based
Excerpt: The miRNA expression levels were compared in terms of relative value based on the RNU6B expression level as an internal control. Stars represent 21 types of miRNA genes located on or around the CpG islands. […] A bar graph representing each cell line represents a comparison of expression levels in the RT7 cells and in each cell line. […] A bar graph representing each cell line indicates a comparison of expression levels in untreated cells and in treated cells. […] Asterisks (*) represent a frequency of oral squamous-cell carcinoma cell lines in which recovery of candidate miRNA expression (expression levels of more than 1.5-fold) was observed by comparing untreated cells with cells that have been treated with 10 μM 5-aza-dCyd.
In order to inspect whether or not expression of these 5 types of miRNA genes was suppressed by DNA methylation, oral squamous-cell carcinoma cell lines in which these 5 types of miRNA genes had not been expressed were treated with 1 μM and 10 μM demethylating reagents (5-aza-dCyd) for 5 days. RNA was extracted from these cell lines and expression of candidate miRNA genes was inspected via real-time RT-PCR (FIG. 1D).

Question: For Nc1ncn([C@H]2C[C@H](O)[C@@H](CO)O2)c(=O)n1 [5-aza-dCyd, 5-aza-2′-deoxycytidine], which “recovery of candidate miRNA gene expression” value (1 μM and 10 μM for 5 days, OSCC cell lines in which the 5 miRNA genes had not been expressed) is on record?
Answer: The value was “expression of these genes was found to be recovered”.

Question: What about the “demethylation of CpG islands near the miRNA genes” value (oral squamous-cell carcinoma cells cultured in the presence of the demethylating reagent) of the same compound?
Answer: Its value is “possible to demethylate such CpG islands”.
